Measurements published in US20110178142A1, “PHARMACEUTICAL COMPOSITION FOR THERAPEUTIC OR PROPHYLACTIC TREATMENT OF BACTERIAL INFECTIONS AND ASSOCIATED DISEASES” (National Institute of Immunology, priority 2008, published 2011).

Assays:
FtsZ [1] = target: T1, FtsZ (Escherichia coli, UniProt P0A9A6); experiment: Sedimentation assay of FtsZ polymerization; assay type: biochemical, E. coli; settings: 50 μM compound; FtsZ 12 μM
T1 construct: The recombinant protein is exactly same as the natural protein; made in house; host or cells: E. coli BL21
Source text: FtsZ was over-expressed and purified from E. coli BL21 strain as described by Santa and Panda. (Detection of an intermediate during unfolding of bacterial cell division protein FtsZ: loss of functional properties precedes the global unfolding of FtsZ. (2003). The Journal of Biological Chemistry. 278, 21336-43). The recombinant protein is exactly same as the natural protein. For all the experimental procedures, the above expressed and purified recombinant FtsZ was used. The FtsZ concentration was measured by the Bradford method using BSA as a standard (Bradford M M. (1976) A rapid and sensitive method for the quantitation of microgram quantities of protein utilizing the principle of protein-dye binding. Analytical Biochemistry. 72, 248-54). The purified protein was frozen and stored at −80° C. […]
Then, 10 mM MgSO4 and 1 mM GTP were added to the reaction mixtures and incubated for an additional 15 min at 37° C. Polymerized FtsZ was sedimented at 287,000×g for […], and the protein concentration in the supernatant was measured (Santra M K and Panda D. (2007) Acid-induced loss of functional properties of bacterial cell division protein FtsZ: evidence for an alternative conformation at acidic pH, Proteins. 67,177-88). The protein concentration in the pellet was calculated by subtracting the protein concentration in the supernatant from the total protein concentration.

FtsZ (Y371W) = target: T2, FtsZ (Y371W) (Escherichia coli, UniProt P0A9A6, Y371W); experiment: Binding to FtsZ by tryptophan fluorescence quenching, double reciprocal plot; design: species or system E. coli; settings: FtsZ (Y371W) 1 μM, 25° C., read-out: dissociation constant of FtsZ-compound complex
T2 sequence (P0A9A6 1-383 Y371W): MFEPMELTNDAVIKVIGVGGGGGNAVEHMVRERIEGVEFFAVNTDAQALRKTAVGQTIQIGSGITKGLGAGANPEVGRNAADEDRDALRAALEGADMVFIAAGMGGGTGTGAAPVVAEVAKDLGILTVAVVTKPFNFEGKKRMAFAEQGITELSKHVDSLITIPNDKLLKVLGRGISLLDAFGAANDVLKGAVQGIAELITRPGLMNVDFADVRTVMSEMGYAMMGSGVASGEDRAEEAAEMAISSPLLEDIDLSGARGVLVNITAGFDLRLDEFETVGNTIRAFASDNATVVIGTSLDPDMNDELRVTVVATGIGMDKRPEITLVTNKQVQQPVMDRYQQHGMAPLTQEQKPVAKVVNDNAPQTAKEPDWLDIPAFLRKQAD
Description: (Beuria T K, Santra M K and Panda D. (2005) Sanguinarine blocks cytokinesis in bacteria by inhibiting FtsZ assembly and bundling. Biochemistry. 44, 16584-93). […] The change in the fluorescence intensity was used to calculate the dissociation constant of FtsZ-compound complex. A dissociation constant of 15±1.5 μM was determined using a double reciprocal plot of the binding data (FIG. 5B).

FtsZ [2] = target: T1, FtsZ; experiment: Dilution-induced disassembly of preformed FtsZ filaments; assay type: biochemical, E. coli; settings: 20 fold dilution, 5 min at 37° C., concentration dependent
Source text: (§1) FtsZ was over-expressed and purified from E. coli BL21 strain as described by Santa and Panda. (Detection of an intermediate during unfolding of bacterial cell division protein FtsZ: loss of functional properties precedes the global unfolding of FtsZ. (2003). The Journal of Biological Chemistry. 278, 21336-43). The recombinant protein is exactly same as the natural protein. For all the experimental procedures, the above expressed and purified recombinant FtsZ was used. The FtsZ concentration was measured by the Bradford method using BSA as a standard (Bradford M M. (1976) A rapid and sensitive method for the quantitation of microgram quantities of protein utilizing the principle of protein-dye binding. Analytical Biochemistry. 72, 248-54). The purified protein was frozen and stored at −80° C. Prior to use, FtsZ was thawed and centrifuged at 287,000 ×g for 30 min to remove any insoluble aggregates.
FtsZ (30 μM) was polymerized in 25 mM pipes buffer in the presence of 5 mM MgCl2, 1 mM GTP and 50 mM KCl. Preformed FtsZ polymers were diluted 20 fold in warm 25 mM pipes buffer in the absence and presence of different concentrations of Compound 1 and the mixtures were incubated for 5 min at 37° C. The polymers were then collected by centrifugation.

FtsZ [3] = target: T1, FtsZ; experiment: GTPase activity of FtsZ (malachite green ammonium molybdate assay); assay type: biochemical, E. coli
Source text: as §1
It was then polymerized in the presence of 10 mM magnesium and 1 mM GTP at 37° C. The GTP hydrolysis reaction was quenched at different time points by adding perchloric acid. Moles of inorganic phosphate released per mole of FtsZ were measured using the standard malachite green ammonium molybdate assay (Geladopoulos T P, Sotiroudis T G and Evangelopoulos A E. (1991). A malachite green colorimetric assay for protein phosphatase activity. Analytical Biochemistry.192,112-6;Beuria T K, Krishnakumar S S, Sahar S, Singh N, Gupta K, Meshram M and Panda D. (2003) Glutamate-induced assembly of bacterial cell division protein FtsZ. The Journal of Biological Chemistry. 278, 3735-41).

FtsZ [4] = target: T1, FtsZ; experiment: Electron microscopic analysis of FtsZ assembly; assay type: biochemical, E. coli
Source text: as §1
FtsZ (12 μM) in 25 mM pipes buffer (pH 6.5) was incubated without or with different concentrations of compound for 10 min on ice. Then, 10 mM MgSO4 and 1 mM GTP were added to the reaction mixtures and incubated for an additional 15 min at 37° C. Samples were transferred onto a formvar-carbon coated copper grid, stained with 2% uranyl acetate and observed using Transmission Electron Microscope (FEI TECHNAI G^2 12) as described previously (Beuria T K, Santra M K and Panda D. (2005) Sanguinarine blocks cytokinesis in bacteria by inhibiting FtsZ assembly and bundling. Biochemistry. 44, 16584-93).
The observed difference in the thickness of the FtsZ protofilament bundles in the absence and presence of 10 and 25 μM concentration is significant at a 99.9% confidence level (p<0.001).

FtsZ [5] = target: T1, FtsZ; experiment: Far-UV circular dichroism of FtsZ; design: species or system E. coli; settings: 0-50 μM compound; FtsZ 1 μM
Source text: as §1
The far-UV CD spectra were recorded using a JASCO spectropolarimeter. The secondary structure was monitored over the wavelength range of 200-260 nm using a 0.1-cm path length cuvette and the ellipticity was determined at 220 nm. Each spectrum was recorded using an average of 3 scans.

T1 sequence (P0A9A6 whole entry): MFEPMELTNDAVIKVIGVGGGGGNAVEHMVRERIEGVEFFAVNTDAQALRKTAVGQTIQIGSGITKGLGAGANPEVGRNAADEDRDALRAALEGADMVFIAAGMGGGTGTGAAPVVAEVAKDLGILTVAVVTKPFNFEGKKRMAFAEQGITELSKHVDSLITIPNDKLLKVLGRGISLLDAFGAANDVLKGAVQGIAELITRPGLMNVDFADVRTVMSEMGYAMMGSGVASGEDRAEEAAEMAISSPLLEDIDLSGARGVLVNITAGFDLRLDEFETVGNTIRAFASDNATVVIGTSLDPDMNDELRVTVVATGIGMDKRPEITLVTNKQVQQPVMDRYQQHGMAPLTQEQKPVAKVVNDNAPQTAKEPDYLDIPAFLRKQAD

SMILES: O=C(O)c1cccc(-c2ccc(C=C3SC(=S)N(c4cccc(C(F)(F)F)c4)C3=O)o2)c1 [the compound, 3-{5-[4-Oxo-2-thioxo-3-(3-trifluoromethyl-phenyl)-thiazolidin-5-ylidenemethyl]-furan-2-yl}-benzoic acid]
- increase of sedimentable polymeric mass of FtsZ (FtsZ [1]): 25%
- Kd (FtsZ (Y371W)): 15 ± 1.5 µM
- dilution-induced disassembly of FtsZ protofilaments (FtsZ [2]): strongly prevented
- rate of GTP hydrolysis at 5 min (FtsZ [3]; 10 μM compound): 2.9 phosphate release per FtsZ per min
- rate of GTP hydrolysis at 5 min (FtsZ [3]; 25 μM compound): 1.5 phosphate release per FtsZ per min
- rate of GTP hydrolysis at 5 min (FtsZ [3]; 50 μM compound): 1.3 phosphate release per FtsZ per min
- average thickness of FtsZ bundles (FtsZ [4]; 10 μM compound): 64±3 nm
- average thickness of FtsZ bundles (FtsZ [4]; 25 μM compound): 66±4.3 nm
- average thickness of FtsZ bundles (FtsZ [4]; 50 μM compound, large number of aggregates observed): 46±3.5 nm
- effect on secondary structure of FtsZ (far-UV CD) (FtsZ [5]): did not change the secondary structure
